Experimental data taken from PubChem BioAssay (NCI).
Where “and” joins values, the source holds several entries; their conditions need not be identical. Equal values may be shown once.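 Exposure lasted 48 hours, with cells grown in 96-well plates and compounds tested at five concentrations. GI50 = concentration required for 50% inhibition of growth. TGI denotes the concentration required for complete inhibition of growth.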

Legend:
Assay in all cases: DTP human tumour cell line panel, 48 h
DU-145 prostate = tested on: DU-145 prostate
UO-31 renal = tested on: UO-31 renal
KM12 colon = tested on: KM12 colon
SF-268 CNS = tested on: SF-268 CNS
MDA-MB-231 breast = tested on: MDA-MB-231 breast
786-0 renal = tested on: 786-0 renal
HCT-15 colon = tested on: HCT-15 colon
CCRF-CEM leukemia = tested on: CCRF-CEM leukemia
NCI/ADR-RES ovarian = tested on: NCI/ADR-RES ovarian
MDA-MB-435 = tested on: MDA-MB-435

In the case of `N#Cc1nn(-c2cc(=O)[nH]c3ccc(Br)cc23)c(N)c1C#N`, the GI50 (DU-145 prostate) is reported as > 100 µM, the TGI (DU-145 prostate) is reported as > 100 µM and the GI50 (UO-31 renal) is reported as > 100 µM. For the same compound, the TGI (UO-31 renal) was > 100 µM, the GI50 (KM12 colon) was > 100 µM and the TGI (KM12 colon) was > 100 µM. For the same compound, the GI50 (SF-268 CNS) was 67 µM, the TGI (SF-268 CNS) was > 100 µM and the GI50 (MDA-MB-231 breast) was > 100 µM. For the same compound, the TGI (MDA-MB-231 breast) was > 100 µM, the GI50 (786-0 renal) was > 100 µM and the TGI (786-0 renal) was > 100 µM. For the same compound, the GI50 (HCT-15 colon) was > 100 µM, the TGI (HCT-15 colon) was > 100 µM and the GI50 (CCRF-CEM leukemia) was > 100 µM. For the same compound, the TGI (CCRF-CEM leukemia) was > 100 µM, the GI50 (NCI/ADR-RES ovarian) was > 100 µM and the TGI (NCI/ADR-RES ovarian) was > 100 µM. For the same compound, the GI50 (MDA-MB-435) was > 100 µM and the TGI (MDA-MB-435) was > 100 µM.

In the case of `O=C(NCCCCCCNC(=O)OCc1ccc2c(Cl)cc(Cl)c(O)c2n1)OCc1ccc2c(Cl)cc(Cl)c(O)c2n1`, the GI50 (DU-145 prostate) is reported as 1.03 µM, the TGI (DU-145 prostate) is reported as 2.24 µM and the GI50 (UO-31 renal) is reported as 0.619 µM. The TGI (UO-31 renal) was 1.95 µM, the GI50 (KM12 colon) was 1.34 µM and the TGI (KM12 colon) was 2.95 µM. For the same compound, the GI50 (SF-268 CNS) was 1.33 µM, the TGI (SF-268 CNS) was 2.78 µM and the GI50 (MDA-MB-231 breast) was 1.17 µM. For the same compound, the TGI (MDA-MB-231 breast) was 2.49 µM, the GI50 (786-0 renal) was 1.28 µM and the TGI (786-0 renal) was 2.67 µM. For the same compound, the GI50 (HCT-15 colon) was 0.317 µM, the TGI (HCT-15 colon) was 1.02 µM and the GI50 (CCRF-CEM leukemia) was 0.311 µM. For the same compound, the GI50 (NCI/ADR-RES ovarian) was 0.518 µM, the TGI (NCI/ADR-RES ovarian) was 6.58 µM and the GI50 (MDA-MB-435) was 0.443 µM. The TGI (MDA-MB-435) was 1.71 µM.

With `CNC(=O)CN1CCC(Oc2cc3c(Nc4cccc(Cl)c4F)ncnc3cc2OC)CC1` the GI50 (DU-145 prostate) was 3.64 µM and 2.19 µM, the TGI (DU-145 prostate) was > 56 µM and the GI50 (UO-31 renal) was 0.177 µM and 0.427 µM. The TGI (UO-31 renal) was 15.2 µM and > 10 µM, the GI50 (KM12 colon) was 17.3 µM and > 5.89 µM and the TGI (KM12 colon) was 32.4 µM and > 10 µM. For the same compound, the GI50 (SF-268 CNS) was 8.25 µM and 4.25 µM, the TGI (SF-268 CNS) was > 45.2 µM and the GI50 (MDA-MB-231 breast) was 5.9 µM and 4.18 µM. For the same compound, the TGI (MDA-MB-231 breast) was 20.7 µM and > 10 µM, the GI50 (786-0 renal) was 5.28 µM and 5.31 µM and the TGI (786-0 renal) was 27.8 µM and > 10 µM. For the same compound, the GI50 (HCT-15 colon) was 11.2 µM and > 5.17 µM, the TGI (HCT-15 colon) was 67.6 µM and > 10 µM and the GI50 (CCRF-CEM leukemia) was 24.6 µM and > 5.76 µM. The TGI (CCRF-CEM leukemia) was 81 µM and > 10 µM, the GI50 (NCI/ADR-RES ovarian) was 11.4 µM and > 6.36 µM and the TGI (NCI/ADR-RES ovarian) was 66.4 µM and > 10 µM. The GI50 (MDA-MB-435) was 21.5 µM and > 8.41 µM and the TGI (MDA-MB-435) was > 62.4 µM.

Compound `Clc1ccc2c(NCCNc3nc(N4CCCC4)nc4ccccc34)ccnc2c1` has a GI50 (DU-145 prostate) of 1.17 µM, a TGI (DU-145 prostate) of 2.73 µM and a GI50 (UO-31 renal) of 1.26 µM. For the same compound, the TGI (UO-31 renal) was 2.51 µM, the GI50 (KM12 colon) was 1.02 µM and the TGI (KM12 colon) was 2.46 µM. It also gave a GI50 (SF-268 CNS) of 1.59 µM, a TGI (SF-268 CNS) of 5.41 µM and a GI50 (MDA-MB-231 breast) of 0.811 µM. It also gave a TGI (MDA-MB-231 breast) of 2.24 µM, a GI50 (786-0 renal) of 1.17 µM and a TGI (786-0 renal) of 3.18 µM. It also gave a GI50 (HCT-15 colon) of 0.254 µM, a TGI (HCT-15 colon) of 2.92 µM and a GI50 (CCRF-CEM leukemia) of 0.457 µM. For the same compound, the TGI (CCRF-CEM leukemia) was > 100 µM, the GI50 (NCI/ADR-RES ovarian) was 2.78 µM and the TGI (NCI/ADR-RES ovarian) was 11.1 µM. For the same compound, the GI50 (MDA-MB-435) was 1.6 µM and the TGI (MDA-MB-435) was 3.11 µM.

`O=S(=O)(CCCCl)SCCCCl` was tested, and the TGI (DU-145 prostate) was > 100 µM, the TGI (UO-31 renal) was > 100 µM and the TGI (KM12 colon) was > 100 µM. It also gave a TGI (SF-268 CNS) of 65 µM, a TGI (MDA-MB-231 breast) of 69.4 µM and a TGI (786-0 renal) of 33.2 µM. The TGI (HCT-15 colon) was 54.7 µM, the TGI (CCRF-CEM leukemia) was 47.1 µM and the TGI (NCI/ADR-RES ovarian) was > 85.3 µM. The TGI (MDA-MB-435) was > 67.2 µM.

With `Cc1cc2nc(C(Cl)Cl)nc(-c3ccccc3)n2n1` the GI50 (DU-145 prostate) was 1.95 µM, the TGI (DU-145 prostate) was 5.41 µM and the GI50 (UO-31 renal) was 5.02 µM. The TGI (UO-31 renal) was 21.6 µM, the GI50 (KM12 colon) was 1.78 µM and the TGI (KM12 colon) was 4.86 µM. It also gave a GI50 (SF-268 CNS) of 4.76 µM, a TGI (SF-268 CNS) of 39.4 µM and a GI50 (MDA-MB-231 breast) of 3.44 µM. The TGI (MDA-MB-231 breast) was 20.9 µM, the GI50 (786-0 renal) was 52.9 µM and the TGI (786-0 renal) was > 100 µM. It also gave a GI50 (HCT-15 colon) of 4.11 µM, a TGI (HCT-15 colon) of 20.8 µM and a GI50 (CCRF-CEM leukemia) of 25.8 µM. For the same compound, the TGI (CCRF-CEM leukemia) was > 100 µM, the GI50 (NCI/ADR-RES ovarian) was 3.78 µM and the TGI (NCI/ADR-RES ovarian) was 29.9 µM. For the same compound, the GI50 (MDA-MB-435) was 5.84 µM and the TGI (MDA-MB-435) was 23.9 µM.

With `Cn1c(=N)n[n+]([O-])c2ccccc21` the TGI (DU-145 prostate) was 4.11 µM and 4.12 µM, the TGI (UO-31 renal) was 8.83 µM and 17.6 µM and the TGI (KM12 colon) was 37.8 µM and 36.7 µM. The GI50 (SF-268 CNS) was 2.67 µM and 7.11 µM, the TGI (SF-268 CNS) was 7.7 µM and 17.6 µM and the TGI (MDA-MB-231 breast) was > 100 µM. For the same compound, the TGI (786-0 renal) was 16 µM and 24.8 µM, the GI50 (HCT-15 colon) was 4.72 µM and the TGI (HCT-15 colon) was 10.8 µM. The TGI (CCRF-CEM leukemia) was 21.2 µM and 48.7 µM, the GI50 (NCI/ADR-RES ovarian) was 4.44 µM and 9.2 µM and the TGI (NCI/ADR-RES ovarian) was > 100 µM and 42 µM. The TGI (MDA-MB-435) was 1.83 µM and 2.39 µM.

With `C[C@@H]1OCC2(CCN(c3cnc(Sc4ccnc(N)c4Cl)c(N)n3)CC2)[C@@H]1N` the GI50 (DU-145 prostate) was > 67.8 µM, the TGI (DU-145 prostate) was > 100 µM and the GI50 (UO-31 renal) was 0.926 µM. The TGI (UO-31 renal) was > 100 µM, the GI50 (KM12 colon) was 5.46 µM and the TGI (KM12 colon) was > 100 µM. The GI50 (SF-268 CNS) was 27.7 µM, the TGI (SF-268 CNS) was > 100 µM and the GI50 (MDA-MB-231 breast) was > 100 µM. For the same compound, the TGI (MDA-MB-231 breast) was > 100 µM, the GI50 (786-0 renal) was 98.6 µM and the TGI (786-0 renal) was > 100 µM. For the same compound, the GI50 (HCT-15 colon) was > 100 µM, the TGI (HCT-15 colon) was > 100 µM and the GI50 (CCRF-CEM leukemia) was > 95.6 µM. For the same compound, the TGI (CCRF-CEM leukemia) was > 100 µM, the GI50 (NCI/ADR-RES ovarian) was > 100 µM and the TGI (NCI/ADR-RES ovarian) was > 100 µM. The GI50 (MDA-MB-435) was > 100 µM and the TGI (MDA-MB-435) was > 100 µM.

`O=c1ccnc(SCc2ccc(Cl)cc2)[nH]1` was tested, and the TGI (DU-145 prostate) was > 100 µM, the TGI (UO-31 renal) was > 100 µM and the TGI (KM12 colon) was > 100 µM. The TGI (SF-268 CNS) was > 100 µM, the TGI (MDA-MB-231 breast) was > 100 µM and the TGI (786-0 renal) was > 100 µM. The TGI (HCT-15 colon) was > 100 µM, the TGI (CCRF-CEM leukemia) was > 100 µM and the TGI (NCI/ADR-RES ovarian) was > 100 µM. For the same compound, the TGI (MDA-MB-435) was > 100 µM.

`CC[CH2][Sn]([CH2]CC)([O]C(=O)Cc1ccc(F)cc1)[O][Sn]([CH2]CC)([CH2]CC)[O]C(=O)Cc1ccc(F)cc1` gave a GI50 (DU-145 prostate) of 0.537 µM, a TGI (DU-145 prostate) of 1.8 µM and a GI50 (UO-31 renal) of 0.482 µM. For the same compound, the TGI (UO-31 renal) was 1.65 µM, the GI50 (KM12 colon) was 0.702 µM and the TGI (KM12 colon) was 2.06 µM. For the same compound, the GI50 (SF-268 CNS) was 0.13 µM, the TGI (SF-268 CNS) was 0.606 µM and the GI50 (MDA-MB-231 breast) was 0.406 µM. For the same compound, the TGI (MDA-MB-231 breast) was 1.76 µM, the GI50 (786-0 renal) was 0.133 µM and the TGI (786-0 renal) was 0.361 µM. The GI50 (HCT-15 colon) was 0.218 µM, the TGI (HCT-15 colon) was 0.658 µM and the TGI (CCRF-CEM leukemia) was 1.12 µM. For the same compound, the GI50 (NCI/ADR-RES ovarian) was 0.574 µM, the TGI (NCI/ADR-RES ovarian) was 1.93 µM and the GI50 (MDA-MB-435) was 0.393 µM. For the same compound, the TGI (MDA-MB-435) was 1.61 µM.

`Nc1c2ccccc2nc2ccccc12` (tested in a mixture with another compound) was tested, and the GI50 (DU-145 prostate) was 2.38 µM, the TGI (DU-145 prostate) was 6.51 µM and the GI50 (UO-31 renal) was 1.41 µM. For the same compound, the TGI (UO-31 renal) was 3.84 µM, the GI50 (KM12 colon) was 2.22 µM and the TGI (KM12 colon) was 6.77 µM. It also gave a GI50 (SF-268 CNS) of 2.13 µM, a TGI (SF-268 CNS) of 6.08 µM and a GI50 (MDA-MB-231 breast) of 1.5 µM. It also gave a TGI (MDA-MB-231 breast) of 5.84 µM, a GI50 (786-0 renal) of 2.45 µM and a TGI (786-0 renal) of 9.4 µM. It also gave a GI50 (HCT-15 colon) of 2.03 µM, a TGI (HCT-15 colon) of 10.4 µM and a GI50 (CCRF-CEM leukemia) of 2.72 µM. For the same compound, the TGI (CCRF-CEM leukemia) was 77.3 µM, the GI50 (NCI/ADR-RES ovarian) was 1.74 µM and the TGI (NCI/ADR-RES ovarian) was 6 µM. The GI50 (MDA-MB-435) was 2.57 µM and the TGI (MDA-MB-435) was 9 µM.
